Reference: publication PMC6865181, “Role of L-Type Amino Acid Transporter 1 (LAT1) for the Selective Cytotoxicity of Sesamol in Human Melanoma Cells” (Molecules, 2019)
Where two headings read alike, the source gives them in different places. Marks after values point to notes of the source that are not given here.

Assays:
[1] = system: SK-MEL-2 cells; experiment: Time-course of sesamol cellular uptake (distribution) in SK-MEL-2 cells; assay type: in vitro ADME, human
Procedure: (§1) The cells were used for the following experiments.
(§2) The cells were exposed to 1 mM (200 µL) sesamol and incubated at 37 °C at various times (0.5, 1, 3, 5, 10, and 15 min). The media was plated into 96-well plates prior to measuring the extracellular sesamol content by HPLC analysis. […] The sesamol content in 20 µL of cell lysate was quantified using HPLC assay as described in the analytical procedure.
(§3) The cellular uptake of sesamol was determined based on the sesamol content in cells (nmol/mg protein) to medium (nmol/µL) (expressed as C/M ratio, µL/mg protein). The linear regression of the C/M ratio from 0.5 to 3 min was performed (r^2 > 0.90); to give the initial distribution volume (µL/mg protein) from the y-intercept, and the initial uptake clearance (µL/min/mg protein) from the slope.

[2] = system: Vero cells; experiment: Time-course of sesamol cellular uptake (distribution) in Vero cells; assay type: in vitro ADME, African green monkey
Procedure: as §1, §2, §3

[3] = system: SK-MEL-2 cells; experiment: Uptake kinetics of sesamol at 37 °C and 4 °C in SK-MEL-2 cells; details: for Pd (sesamol passive diffusion) / Vmax (sesamol uptake) / Km: 1 min; for Km: read-out: Km (sesamol uptake)
Procedure: (§4) SK-MEL-2 and Vero cells were seeded separately into 24-well plates at 2 × 10^5 cells/well for 24 h. The media was removed, and the cells pre-incubated with HBSS pH 7.4 for 10 min. The cells were used for the following experiments.
(§5) The cells were pre-incubated with HBSS pH 7.4 at 37 °C and at 4 °C both for 10 min. The cells were treated with sesamol (200 µL; range, 31.5 to 1,000 μM) and incubated under each condition for another 1 min, to exclude the influence of efflux or metabolism processes as per the previous report. The uptake process at 37 °C represented the total uptake of sesamol in the cells, including both carrier-mediated transport and passive transport; whereas the uptake process at 4 °C represented mainly passive transport.
(§6) The uptake kinetics was fitted using Michaelis-Menten kinetics (non-linear least square kinetics model) (r^2 > 0.90) Equation (1) that allowed estimation of Vmax, Km, and Pd values.
(§7) V = (Vmax × [S])/(Km + [S]) + Pd × [S](1)
(§8) V = uptake velocity at a certain amount of substrate (nmol/min/mg protein)
(§9) Vmax = maximum uptake velocity (nmol/min/mg protein)
(§10) [S] = concentration of sesamol at extracellular compartment (µM)
(§11) Km = concentration of sesamol at half of Vmax (µM)
(§12) Pd = passive lipoidal diffusion uptake rate (µL/min/mg protein)
(§13) The rate to reach total uptake clearance of carrier-mediated transport was obtained from the ratio of Vmax to Km (µL/min/mg protein). The total uptake clearance of the process (µL/min/mg protein) was obtained from (Vmax /Km) + Pd.

[4] = system: Vero cells; experiment: Uptake kinetics of sesamol at 37 °C and 4 °C in Vero cells; details: for Pd (sesamol passive diffusion) / Vmax (sesamol uptake): 1 min
Procedure: as §4, §5, §6, §7, §8, §9, §10, §11, §12, §13

[5] = target: T1, LAT1 (Homo sapiens, UniProt Q01650); experiment: LAT1 function: competitive uptake of L-dopa in SK-MEL-2 cells; assay type: cell-based; details: SK-MEL-2, L-dopa 0.1 mM, 10 min
T1 sequence (Q01650 whole entry): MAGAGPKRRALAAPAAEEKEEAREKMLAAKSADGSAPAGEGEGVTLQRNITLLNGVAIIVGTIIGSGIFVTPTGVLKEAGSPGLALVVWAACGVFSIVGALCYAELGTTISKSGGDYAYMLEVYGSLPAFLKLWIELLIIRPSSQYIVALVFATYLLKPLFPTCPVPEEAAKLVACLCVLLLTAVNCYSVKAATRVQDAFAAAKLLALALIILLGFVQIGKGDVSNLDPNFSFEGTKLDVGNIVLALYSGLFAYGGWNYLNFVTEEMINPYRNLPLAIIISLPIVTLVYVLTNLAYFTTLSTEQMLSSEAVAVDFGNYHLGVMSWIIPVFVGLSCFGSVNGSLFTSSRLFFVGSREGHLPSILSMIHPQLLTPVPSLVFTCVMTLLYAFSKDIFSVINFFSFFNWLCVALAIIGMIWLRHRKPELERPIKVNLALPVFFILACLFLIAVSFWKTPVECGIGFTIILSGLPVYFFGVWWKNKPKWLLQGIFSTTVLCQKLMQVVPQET
T1 sequence (P08195 102-630 partner): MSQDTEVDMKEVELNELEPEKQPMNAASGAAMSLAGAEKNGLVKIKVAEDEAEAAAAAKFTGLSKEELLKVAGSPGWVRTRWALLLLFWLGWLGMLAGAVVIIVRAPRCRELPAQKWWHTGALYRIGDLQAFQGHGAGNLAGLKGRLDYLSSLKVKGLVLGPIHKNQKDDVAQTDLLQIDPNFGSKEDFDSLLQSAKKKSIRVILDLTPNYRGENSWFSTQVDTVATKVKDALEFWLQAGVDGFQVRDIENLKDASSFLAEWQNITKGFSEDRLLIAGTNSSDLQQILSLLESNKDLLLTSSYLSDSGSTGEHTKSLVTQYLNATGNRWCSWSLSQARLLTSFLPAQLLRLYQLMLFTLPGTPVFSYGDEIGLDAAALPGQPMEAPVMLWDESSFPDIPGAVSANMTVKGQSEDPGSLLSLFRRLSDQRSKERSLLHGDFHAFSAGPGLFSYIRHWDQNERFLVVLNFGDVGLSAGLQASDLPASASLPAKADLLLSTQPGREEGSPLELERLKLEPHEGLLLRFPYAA
Procedure: as §4
(§14) Sesamol was also investigated for its affinity to LAT1. […] Competitive uptake was performed for 10 min then the cells were washed twice with ice-cold PBS. The L-dopa was solubilized by 0.1 M HCl and the cell lysate (25 µL) was pipetted for protein determination. […] Intracellular and extracellular L-dopa was quantified by the HPLC assay. The L-dopa uptake was represented as the distribution volume of L-dopa in a cell to media ratio (C/M ratio) as calculated in Section 4.3.1.
The analysis was based on a BDS Hypersil C-18 column, (4.6 × 250 mm, 5 µm packing, Thermo Fisher Scientific, Waltham, MA, USA). The column temperature was set at 30 °C with a flow rate of 0.8 mL/min. The mobile phase for sesamol quantification was 70% methanol in water, vs. 20% methanol in water for L-dopa. […] The validated sesamol quantification conducted using sesamol spiked cell lysate with high selectivity and clear separation from the endogenous cell lysate as previously reported. The % bias and % precision was determined within and between days, each was maintained below 6%.

[6] = system: LAT1; experiment: LAT1 function: competitive uptake of L-dopa in Vero cells; assay type: cell-based, African green monkey; details: L-dopa 0.1 mM, 10 min
Procedure: as §4, §14
(§15) Quantitative analysis of sesamol and L-dopa were performed using a Shimadzu HPLC (LC-2030C-3D) with a UV photodiode array detector (DAD) (Kyoto, Japan). The analysis was based on a BDS Hypersil C-18 column, (4.6 × 250 mm, 5 µm packing, Thermo Fisher Scientific, Waltham, MA, USA). The column temperature was set at 30 °C with a flow rate of 0.8 mL/min. The mobile phase for sesamol quantification was 70% methanol in water, vs. 20% methanol in water for L-dopa. The respective detection wavelength and elution time for sesamol and L-dopa was 297 nm and 280 nm and 4.2 and 4.5 min. The validated sesamol quantification conducted using sesamol spiked cell lysate with high selectivity and clear separation from the endogenous cell lysate as previously reported. The % bias and % precision was determined within and between days, each was maintained below 6%.

[7] = target: T1, LAT1; experiment: cell-based; details: SK-MEL-2; sesamol 0.1 mM, uptake equilibrium 10 min
Procedure: as §4
(§16) Competitive inhibition of uptake of sesamol was done in both SK-MEL-2 and the Vero cells. […] The cells were washed twice with ice-cold PBS, solubilized in methanol, and centrifuged at 2400× g, at 4 °C for 20 min. The precipitated protein was re-solubilized by 0.1 M NaOH prior to protein determination. The sesamol content was quantified using HPLC assay. The cellular uptake of sesamol was calculated as per the C/M ratio.
as §15

[8] = system: LAT1; details: Vero cells; sesamol 0.1 mM, uptake equilibrium 10 min
Procedure: as §4, §16, §15

[9] = system: SK-MEL-2 cells; experiment: Antiproliferative effect, neutral red uptake assay, SK-MEL-2 cells; assay type: cell-based, human
Procedure: (§17) The SK-MEL-2 and Vero cells (at 5 × 10^4 cells/well) were seeded separately into 96-well plates. After the cells were exposed to the tested compounds (200 µL) for 24 h, neutral red (50 µg/mL) (Sigma-Aldrich, St. Louis, MO, USA) was incorporated into the cells for 2 h. The cells were then washed with ice-cold PBS and lysed using 0.33% HCl in isopropanol. The absorbances of neutral red were measured at 540 nm with a reference wavelength of 660 nm using a UV-microplate reader (Perkin Elmer, Waltham, MA, USA). […] The selective index was calculated from the ratio of the IC50 of Vero and SK-MEL-2 cells.

[10] = system: Vero cells; experiment: Antiproliferative effect, neutral red uptake assay, Vero cells; assay type: cell-based, African green monkey; details: Vero cells, 24 h exposure, neutral red; read-out: IC50 (cell viability)
Procedure: as §17

[11] = stated in the introduction without reference; cited from earlier work
[12] = 1 mM sesamol, 37 °C, linear regression 0.5-3 min
[13] = competitor (BCH, L-tyrosine, sesamol 1 mM; L-leucine, L-alanine 2 mM; melphalan 0.05 mM)
[14] = competitor at the concentration printed in the row

For Oc1ccc2c(c1)OCO2 [Sesamol], the initial distribution volume [1, 12] was 6.0 ± 0.4 µL/mg protein, the initial uptake clearance [1, 12] was 2.6 ± 0.1 µL/min/mg protein and the “suppression of sesamol uptake at 4 °C compared to 37 °C” value ([1]; 30 s) was 45%. The “time at which sesamol uptake reached a steady state” value ([1]; 37 °C) was “approximately 10 min”, the “suppression of sesamol uptake at 4 °C compared to 37 °C” value ([1]; 1 min) was 61% and the initial distribution volume [2, 12] was 5.7 ± 0.4 µL/mg protein. The initial uptake clearance [2, 12] was 1.3 ± 0.2 µL/min/mg protein, the “reduction in sesamol distribution volume at 4 °C compared to 37 °C” value ([2]; 30 s) was 33% and the “time at which sesamol uptake reached a steady state” value ([2]; 37 °C) was “about 5 min”. The “reduction in sesamol distribution volume at 4 °C compared to 37 °C” value ([2]; 1 min) was 23%, the “carrier-mediated uptake clearance in SK-MEL-2 cells relative to Vero cells” value ([3]; 37 °C) was 3.4 fold and the “Pd (sesamol passive diffusion)” value ([3]; SK-MEL-2, 4 °C) was 2.7 ± 0.1^a µL/min/mg. For the same compound, the “Vmax (sesamol uptake)” value ([3]; SK-MEL-2, 4 °C) was 0.3 ± 0.1^b nmol/min/mg, the “Pd (passive diffusion of sesamol)” value ([3]; SK-MEL-2, 37 °C) was 2.3 ± 0.2 µL/min/mg protein and the “Vmax (carrier-mediated transport of sesamol)” value ([3]; SK-MEL-2, 37 °C) was 4.2 ± 0.1 nmol/min/mg protein. For the same compound, the “carrier-mediated transport as share of total uptake clearance” value ([3]; SK-MEL-2, 37 °C) was 89%, the “Pd (sesamol passive diffusion)” value ([3]; SK-MEL-2, 37 °C, sesamol alone) was 2.3 ± 0.2^b µL/min/mg and the “Vmax (sesamol uptake)” value ([3]; SK-MEL-2, 37 °C, sesamol alone) was 4.2 ± 0.1^a nmol/min/mg. For the same compound, the Km ([3]; SK-MEL-2, 4 °C) was 26.8 ± 9.8 µM, the Km ([3]; SK-MEL-2, 37 °C, sesamol alone) was 225 ± 19.3 µM and the “Pd (sesamol passive diffusion)” value ([4]; 4 °C) was 2.4 ± 0.3^a µL/min/mg. For the same compound, the “Vmax (sesamol uptake)” value ([4]; 4 °C) was 0.4 ± 0.1^b nmol/min/mg, the “Pd (passive diffusion of sesamol)” value ([4]; 37 °C) was 2.1 ± 0.1 µL/min/mg protein and the “Vmax (carrier-mediated transport of sesamol)” value ([4]; 37 °C) was 0.9 ± 0.0 nmol/min/mg protein. For the same compound, the “carrier-mediated transport as share of total uptake clearance” value ([4]; 37 °C) was 72%, the “Pd (sesamol passive diffusion)” value ([4]; 37 °C, sesamol alone) was 2.1 ± 0.1^a µL/min/mg and the “Vmax (sesamol uptake)” value ([4]; 37 °C, sesamol alone) was 0.9 ± 0.0^a nmol/min/mg. For the same compound, the Km ([4]; read-out: Km (sesamol uptake), 4 °C, 1 min) was 66.1 ± 20 µM, the Km ([4]; read-out: Km (sesamol uptake), 37 °C, sesamol alone, 1 min) was 160 ± 18.4 µM and the “Percent Inhibition of L-Dopa Distribution Volume” value [5, 13] was 44%. The “L-Dopa Distribution Volume in presence of the compound” value [5, 14] was 207.6 ± 31.5 µL/mg Protein, the “Percent Inhibition of L-Dopa Distribution Volume” value [6, 13] was 33% and the “L-Dopa Distribution Volume in presence of the compound” value [6, 14] was 103.9 ± 9.2 µL/mg Protein. The “Sesamol Distribution Volume, control (no competitor)” value [7] was 0% (23.2 ± 2.1)^a µL/mg Protein, the “Sesamol Distribution Volume, control (no competitor)” value [8] was 0% (17.9 ± 1.7)^a µL/mg Protein and the “Selective Index” value [9] was 3.4. For the same compound, the IC50 ([9]; SK-MEL-2, 24 h exposure, neutral red, read-out: IC50 (cell viability)) was 2 ± 0.1 mM, the IC50 [10] was 6.7 ± 0.2 mM and the logP [11] was 1.29.
